What was measured:
[1] = tested on: E1B-19K #6 and Aven-E1B-19K #22 BHK-FVIII cell lines; experiment: Thapsigargin-induced caspase-3 activation, engineered cell lines; assay type: cell-based, hamster; details: 24 hours after 2 μM thapsigargin treatment, anti-apoptosis engineered cell lines
Experimental: (§1) Cells were seeded at a density of 5×10^6 cells/mL in shake flasks and cultured in an incubator maintained at 37° C. and 5% CO2. The culture was examined every 24 hours for viability, caspase-3 activation, Annexin-V binding assay, and nutrient measurements. Cell count was performed by trypan blue exclusion assay using a Cedex cell counting device (Innovatis, Bielefeld, Germany). Caspase-3 activation was detected using a Guava PCA system (Guava Technologies, Hayward, Calif.). Cells were washed with cold PBS, fixed with Cytofix/Cytoperm solution (BD Pharmingen, San Diego, Calif.), and then stained with PE-conjugated monoclonal active caspase-3 antibody (BD Pharmingen) before analyzing with the Guava system. For the Annexin-V binding assay, cells were collected and incubated using a Guava Nexin kit and analyzed on the Guava PCA system according to manufacturer's instructions (Guava Technologies). Levels of glutamine, glutamate, glucose, and lactate were measured by the YSI analyzer (YSI Life Sciences, Yellow Springs, Ohio).
(§2) The engineered cell lines Aven-E1B-19K #22 and E1B-19K #6, in addition to the blank vector and the parental cell lines were treated with thapsigargin in shake flask culture. […] To examine apoptosis induction, caspase-3 activation was evaluated 24 hours after thapsigargin treatment.

[2] = tested on: blank vector and parental BHK-FVIII cell lines; experiment: Thapsigargin-induced caspase-3 activation, control cell lines; assay type: cell-based, hamster; details: 24 hours after 2 μM thapsigargin treatment
Experimental: as §1, §2

Which “percentage of caspase-3 activated cells” value [1] does the source give for `C/C=C(/C)C(=O)O[C@H]1C(C)=C2[C@H]([C@@H]1OC(=O)CCCCCCC)[C@@](C)(OC(C)=O)C[C@H](OC(=O)CCC)[C@@]1(O)[C@H]2OC(=O)[C@@]1(C)O` [thapsigargin] here?
The value was “less than 5%”.

And the “percentage of caspase-3 activated cells” value [2]?
The value was “Approximately 20%”.
